We go through 22 compounds from patent publication US10214546B2, “Btk inhibitors” (MERCK SHARP & DOHME CORP., priority 2014, dated 2019).

pIC50: −log10 of the molar value. Read-outs that look alike come from different tables or passages of the source.

The target in test [1] is BTK enzyme (recombinant full-length BTK, hBTK) (Homo sapiens (Human), UniProt Q06187). The experiment in a line: BTK enzymatic activity LANCE TR-FRET assay. The following applies: 50 pM hBTK, 25 μM ATP, 2 μM biotin-A5-peptide; compound range 1 μM to 0.017 nM; read-out: BTK binding IC50. It counts as biochemical. (In general: TR-FRET usually uses a lanthanide donor and a delayed reading to cut background.)

For test [2], the system named is adenosine uptake into HeLa cells. The experiment in a line: [3H]Adenosine uptake assay in HeLa cells. The following applies: [3H]adenosine accumulation in HeLa cells, compound range 10 μM to 0.032 nM, read-out: ADU inhibition IC50. The class given is cell-based. The gist of the method: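 IC50 came from a 4-parameter fit of counts per second over a ten-point, 1:3 titration (final 10 µM down to […]). Compound was applied 30 min at ambient temperature in HBSS/5% FBS before a 500 nM [3H]adenosine solution was added; uptake ran 60 min, read by Cytostar-T proximity scintillation.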

BTK enzyme (recombinant full-length BTK, hBTK), sequence (Q06187 whole entry): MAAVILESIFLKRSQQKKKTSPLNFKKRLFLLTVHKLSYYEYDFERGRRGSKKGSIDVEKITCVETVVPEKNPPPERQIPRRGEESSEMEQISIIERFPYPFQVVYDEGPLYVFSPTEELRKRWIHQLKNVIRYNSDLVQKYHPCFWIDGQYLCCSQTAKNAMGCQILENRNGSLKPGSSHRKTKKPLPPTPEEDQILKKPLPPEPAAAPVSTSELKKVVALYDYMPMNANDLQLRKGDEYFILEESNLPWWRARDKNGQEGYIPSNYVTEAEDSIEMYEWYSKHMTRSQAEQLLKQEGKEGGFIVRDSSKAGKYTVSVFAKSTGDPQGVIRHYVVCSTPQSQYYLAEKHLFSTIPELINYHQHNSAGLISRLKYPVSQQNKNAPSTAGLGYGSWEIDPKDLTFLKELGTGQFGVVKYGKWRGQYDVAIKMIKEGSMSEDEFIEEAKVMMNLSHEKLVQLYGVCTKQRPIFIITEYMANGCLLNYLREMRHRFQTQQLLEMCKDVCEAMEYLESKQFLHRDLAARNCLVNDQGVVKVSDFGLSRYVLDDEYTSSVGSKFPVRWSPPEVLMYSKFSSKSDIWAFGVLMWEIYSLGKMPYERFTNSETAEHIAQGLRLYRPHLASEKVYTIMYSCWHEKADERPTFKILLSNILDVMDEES

Consider `CC(O)(c1ccc(-c2nc([C@@H]3CC[C@H]4CCC(=O)N4C3)n3ccnc(N)c23)cc1)c1cccc(C2CC2(F)F)c1` (stereo partly drawn) [Example 159, (6R,8aS)-6-[8-amino-1-(4-{1-[3-(2,2-difluorocyclopropyl)phenyl]-1-hydroxyethyl}phenyl)imidazo[1,5-a]pyrazin-3-yl]hexahydroindolizin-3(2H)-one], for which the negative-log IC50 (pIC50) (commonly −log10 of the IC50, conventionally taken in molar units) in test [1] is 10.00; in test [2], 5.73.

Regarding `C[C@@](O)(c1ccc(-c2nc([C@@H]3CC[C@H]4CCC(=O)N4C3)n3ccnc(N)c23)cc1)c1cccc(OC2CC2)c1` [Example 95, (6R,8aS)-6-[8-amino-1-(4-{(1R)-1-[3-(cyclopropyloxy)phenyl]-1-hydroxyethyl}phenyl)imidazo[1,5-a]pyrazin-3-yl]hexahydroindolizin-3(2H)-one], the negative-log IC50 (pIC50) was 8.74 in test [1] and 5.70 in test [2] (Homo sapiens, HeLa).

As to `C[C@](O)(c1ccc(-c2nc([C@@H]3CC[C@H]4CCC(=O)N4C3)n3ccnc(N)c23)cc1)c1cccc(C2CCC2)c1` [Example 82, (6R,8aS)-6-(8-amino-1-{4-[(1S)-1-(3-cyclobutylphenyl)-1-hydroxyethyl]phenyl]imidazo[1,5-a]pyrazin-3-yl)hexahydroindolizin-3(2H)-one], the pIC50 in test [1] was 8.33; in test [2] (Homo sapiens, HeLa), 6.13.

As to `C[C@](O)(c1ccc(-c2nc([C@@H]3CC[C@H]4CCC(=O)N4C3)n3ccnc(N)c23)cc1)c1cccc(N2CCOCC2)c1` [Example 67, (6R,8aS)-6-(8-amino-1-{4-[(1S)-1-hydroxy-1-(3-morpholin-4-ylphenyl)ethyl]phenyl}imidazo[1,5-a]pyrazin-3-yl)hexahydroindolizin-3(2H)-one], the negative-log IC50 (pIC50) was 7.81 in test [1] and 5.07 in test [2] (Homo sapiens, HeLa).

Take `C[C@@](O)(c1ccc(-c2nc([C@@H]3CC[C@H]4CCC(=O)N4C3)n3ccnc(N)c23)cc1)c1cccc(-c2ccccc2)c1` [Example 59, (6R,8aS)-6-(8-amino-1-{4-[(1R)-1-biphenyl-3-yl-1-hydroxyethyl]phenyl}imidazo[1,5-a]pyrazin-3-yl)hexahydroindolizin-3(2H)-one]: the pIC50 is 9.03 in test [1] and 5.90 in test [2] (Homo sapiens, HeLa).

In the case of `CC(O)(c1ccc(-c2nc([C@@H]3CC[C@H]4CCC(=O)N4C3)n3ccnc(N)c23)cc1)c1ccccn1` (stereo partly drawn) [Example 17, (6R,8aS)-6-{8-amino-1-[4-(1-hydroxy-1-pyridin-2-ylethyl)phenyl]imidazo[1,5-a]pyrazin-3-yl}hexahydroindolizin-3(2H)-one], the pIC50 in test [1] was 6.49; in test [2] (Homo sapiens, HeLa), 5.24.

Take `CC(O)(c1ccc(-c2nc([C@@H]3CC[C@H]4CCC(=O)N4C3)n3ccnc(N)c23)cc1)c1cccc(OC(F)F)c1` (stereo partly drawn) [Example 144, (6R,8aS)-6-[8-amino-1-(4-{1-[3-(difluoromethoxy)phenyl]-1-hydroxyethyl}phenyl)imidazo[1,5-a]pyrazin-3-yl]hexahydroindolizin-3(2H)-one]: the negative-log IC50 (pIC50) is 7.17 in test [1] and 6.01 in test [2].

On to `CC(C)(c1cccc([C@](C)(O)c2ccc(-c3nc([C@@H]4CC[C@H]5CCC(=O)N5C4)n4c(Cl)cnc(N)c34)cc2)c1)C(F)(F)F` [Example 124, (6R,8aS)-6-[8-amino-5-chloro-1-(4-{(1R)-1-hydroxy-1-[3-(2,2,2-trifluoro-1,1-dimethylethyl)phenyl]ethyl}phenyl)imidazo[1,5-a]pyrazin-3-yl]hexahydroindolizin-3(2H)-one], for which the negative-log IC50 (pIC50) was 8.92 in test [1] and 5.84 in test [2] (Homo sapiens, HeLa).

“(6R.8aS)-6-[8-amino-1- (4-{(1R)-1-[3- (difluoromethyl)phenyl]-1- hydroxyethyl}phenyl)- 5-fluoroimidazo[1,5- a]pyrazin-3-yl]-2,2- dimethylhexahydroindolizin- 3(2H)-one [Example 178]”: the negative logarithm of the IC50 (pIC50) in test [1] was 8.89; in test [2], 5.34.

Turning to `COc1cc(-c2nc([C@@H]3CC[C@H]4CCC(=O)N4C3)n3ccnc(N)c23)ccc1C(C)(O)c1cccc(C(F)(F)F)c1` (stereo partly drawn) [Example 65, (6R,8aS)-6-[8-amino-1-(4-{1-hydroxy-1-[3-(trifluoromethyl)phenyl]ethyl}-3-methoxyphenyl)imidazo [1,5-a]pyrazin-3-yl]hexahydroindolizin-3(2H)-one], the pIC50 in test [1] is 8.15; in test [2] it was 5.00.

With `C[C@@](O)(c1ccc(-c2nc([C@@H]3CC[C@H]4COCC(=O)N4C3)n3ccnc(N)c23)cc1)c1cccc(C(F)(F)F)c1` [Example 157, (7R,9aS)-7-[8-amino-1-(4-{(1R)-1-hydroxy-1-[3-(trifluoromethyl)phenyl]ethyl}phenyl)imidazo [1,5-a]pyrazin-3-yl]hexahydropyrido[2,1-c][1,4)oxazin-4(3H)-one], the pIC50 is 8.72 in test [1] and 5.65 in test [2] (Homo sapiens, HeLa).

As to `C[C@@](O)(c1ccc(-c2nc([C@@H]3CC[C@H]4N(C3)C(=O)CCC4(F)F)n3ccnc(N)c23)cc1)c1cccc(C(F)(F)F)c1` [Example 170, (7R,9aR)-7-[8-amino-1-(4-{(1R)-1-hydroxy-1-[3-(trifluoromethyl)phenyl]ethyl}phenyl)imidazo [1,5-a]pyrazin-3-yl]-1,1-difluorooctahydro-4H-quinolizin-4-one], the negative-log IC50 (pIC50) in test [1] was 6.25; in test [2] (Homo sapiens, HeLa) it was 5.15.

As for `CC(O)(c1cccc(C(F)F)c1)c1ccc(-c2nc([C@@H]3CC[C@@H]4N(C3)C(=O)CC4(C)C)n3ccnc(N)c23)c(F)c1` (stereo partly drawn) [Example 202, (6R,8aS)-6-(8-amino-1-(4-{1-[3-(difluoromethyl)phenyl]-1-hydroxyethyl}-2-fluorophenyl)imidazo[1,5-a]pyrazin-3-yl]-1,1-dimethylhexahydroindolizin-3(2H)-one], the negative-log IC50 (pIC50) is 9.80 in test [1] and 5.72 in test [2].

With `C[C@](O)(c1cccc(C(F)(F)F)c1)c1ccc(-c2nc([C@@H]3CC[C@H]4CCC(=O)N4C3)n3ccnc(N)c23)c(F)c1` [Example 101, (6R,8aS)-6-[8-amino-1-(2-fluoro-4-{(1S)-1-hydroxy-1-[3-(trifluoromethyl)phenyl]ethyl}phenyl)imidazo [1,5-a]pyrazin-3-yl]hexahydroindolizin-3(2H)-one], the pIC50 in test [1] is 6.11; in test [2] (Homo sapiens, HeLa), 6.43.

As for `Nc1nccn2c([C@@H]3CC[C@H]4CCC(=O)N4C3)nc(-c3ccc(C(O)(c4ccccc4)C(F)(F)F)cc3F)c12` (stereo partly drawn) [Example 30, (6R,8aS)-6-{8-amino-1-[2-fluoro-4-(2,2,2-trifluoro-1-hydroxy-1-phenylethyl)phenyl)imidazo[1,5-a]pyrazin-3-yl}hexahydroindolizin-3(2H)-one], the pIC50 is 8.55 in test [1] and 5.88 in test [2] (Homo sapiens, HeLa).

Consider `CC(C)C(O)(c1ccc(-c2nc([C@@H]3CC[C@H]4CCC(=O)N4C3)n3ccnc(N)c23)cc1)c1cccc(C(F)(F)F)c1` (stereo partly drawn) [Example 79, (6R,8aS)-6-[8-amino-1-(4-{1-hydroxy-2-methyl-1-[3-(trifluoromethyl)phenyl]propyl}phenyl)imidazo [1,5-a]pyrazin-3-yl]hexahydroindolizin-3(2H)-one], for which the pIC50 in test [1] is 6.69; in test [2] it was 5.83.

As to `C[C@@](O)(c1ccc(-c2nc([C@@H]3CC[C@H]4CCC(=O)N4C3)n3ccnc(N)c23)cc1)c1cccc(Cl)c1` [Example 52, (6R,8aS)-6-(8-amino-1-{4-[(1R)-1-(3-chlorophenyl)-1-hydroxyethyl]phenyl}imidazo[1,5-a]pyrazin-3-yl)hexahydroindolizin-3(2H)-one], the pIC50 in test [1] is 9.33; in test [2] (Homo sapiens, HeLa), 5.42.

As to `C[C@](O)(c1ccc(-c2nc([C@@H]3CC[C@H]4CCC(=O)N4C3)n3ccnc(N)c23)cc1)c1ccccc1F` [Example 68, (6R,8aS)-6-(8-amino-1-{4-[(1S)-1-(2-fluorophenyl)-1-hydroxyethyl]phenyl}imidazo[1,5-a]pyrazin-3-yl)hexahydroindolizin-3(2H)-one], the negative-log IC50 (pIC50) in test [1] was 6.34; in test [2] (Homo sapiens, HeLa), 5.26.

Consider `COc1cc(C(O)(c2cccc(C(F)F)c2)C(F)(F)F)ccc1-c1nc([C@@H]2CC[C@H]3CCC(=O)N3C2)n2ccnc(N)c12` (stereo partly drawn) [Example 211, (6R,8aS)-6-[8-amino-1-(4-{1-[3-(difluoromethyl)phenyl]-2,2,2-trifluoro-1-hydroxyethyl}-2-methoxyphenyl)imidazo [1,5-a]pyrazin-3-yl]hexahydroindolizin-3(2H)-one], for which the pIC50 in test [1] was 9.22; in test [2], 5.15.

In the case of `CC(O)(c1cccc(C(F)(F)F)c1)c1ccc(-c2nc([C@@H]3CC[C@H]4CCC(=O)N4C3)n3ccnc(N)c23)c(C(F)(F)F)c1` (stereo partly drawn) [Example 105, (6R,8aS)-6-{8-amino-1-[4-{1-hydroxy-1-[3-(trifluoromethyl)phenyl]ethyl}-2-(trifluoromethyl)phenyl]imidazo[1,5-a]pyrazin-3-yl}hexahydroindolizin-3(2H)-one], the pIC50 in test [1] is 6.00; in test [2] (Homo sapiens, HeLa) it was 6.07.

Take `CCC(O)(c1ccc(-c2nc([C@@H]3CC[C@H]4CCC(=O)N4C3)n3ccnc(N)c23)cc1)c1cccc(C(F)(F)F)c1` (stereo partly drawn) [Example 55, (6R,8aS)-6-[8-amino-1-(4-{1-hydroxy-1-[3-(trifluoromethyl)phenyl]propyl}phenyl)imidazo [1,5-a]pyrazin-3-yl]hexahydroindolizin-3(2H)-one]: the negative logarithm of the IC50 (pIC50) in test [1] was 6.00; in test [2], 6.40.

`C[C@@](O)(c1ccc(-c2nc([C@@H]3CC[C@H]4CCC(=O)N4C3)n3c(F)cnc(N)c23)cc1)c1cccc(C(F)F)c1` [Example 199, (6R,8aS)-6-(8-amino-1-(4-{(1R)-1-[3-(difluoromethyl)phenyl]-1-hydroxyethyl}phenyl)-5-fluoroimidazo[1,5-a]pyrazin-3-yl]hexahydroindolizin-3(2H)-one]: the negative-log IC50 (pIC50) is 9.18 in test [1] and 5.35 in test [2] (Homo sapiens, HeLa).
